Test system: Ad5
Assay: Ad5 genome replication assay (cell-based QPCR) in A549 cells
Settings: Human adenovirus sp., A549, 72 h, read-out: Ad5 qPCR EC50 (μM)
Experimental: Compounds of the present invention were tested for potency against Ad5 in an Ad5 genome replication assay, a cell-based QPCR assay of Ad5 genome replication in A549 cells, a human lung carcinoma cell line. Serotype of human Ad5, used in this replication assay can also replicate in a NZW rabbit model of adenoviral ocular keratitis.
EC50 values (μM) for inhibition of adenoviral replication were determined by QPCR. Briefly, 10,000 cultured A549 cells were inoculated with 25,000 pfu/well for 3 hrs in 2% FBS F12-K A549 culture media. Following inoculation, A549 cells were treated with log unit dilutions of compound of Formula I (˜10 μM thru˜10 pM) in 10% FBS F12-K culture media with 0.3% DMSO for an additional 3 days. Cell viability was assessed with Alamar Blue (10 μl/well for 2 hrs; fluorescence Ex353; Em595 nm). Plates were washed 3 times with 125 μl PBS, cell lysates were prepared for QPCR analysis using Cells to SNP kit (Life Technologies). Ad5 genome levels per cell were determined with RNaseP and Ad5 hexon Taqman Assays (Life Technologies). EC50, the concentration that inhibited Ad5 genome replication formation by 50%, was estimated from plots of Ad5 genomes/cell vs. compound concentration.

| Compound | EC50 [µM] |
| --- | --- |
| CC(C)CC1c2[nH]c3ccc(Cl)cc3c2CCN1C(=O)Cc1ccccc1 (stereo not shown) [Compound 63] | 0.1 to 1 |
| CC(C)CC1c2[nH]c3ccc(Cl)cc3c2CCN1C(=O)CN1CC[C@H](F)C1 (stereo partly shown) [Compound 49] | > 1 |
| CC(C)CC1c2[nH]c3ccc(Cl)cc3c2CCN1C(=O)c1ccncc1 (stereo not shown) [Compound 65] | 0.1 to 1 |
| CC(C)CC1c2[nH]c3ccc(Cl)cc3c2CCN1C(=O)C1CN(CC(C)C)C1 (stereo not shown) [Compound 39] | > 1 |
| CC(C)CC1c2[nH]c3ccc(Cl)cc3c2CCN1Cc1ccco1 (stereo not shown) [Compound 88] | 0.1 to 1 |
| CC(C)CC1c2[nH]c3ccc(Cl)cc3c2CCN1C(=O)CNCc1ccco1 (stereo not shown) [Compound 89] | > 1 |
| CC(C)(C)CC1c2[nH]c3ccc(Cl)cc3c2CCN1C(=O)CCN1CCC(F)(F)CC1 (stereo not shown) [Compound 10] | 0.1 to 1 |
| CC(C)CC1c2[nH]c3ccc(Cl)cc3c2CCN1C(=O)Cc1ccccn1 (stereo not shown) [Compound 59] | > 1 |
| CC(C)CC1c2[nH]c3ccc(Cl)cc3c2CCN1C(=O)CN1CCC(F)(F)CC1 (stereo not shown) [Compound 7] | 0.1 to 1 |
| CC(C)C[C@H]1c2[nH]c3ccc(Br)cc3c2CCN1C(=O)CNC1CC1 [Compound 98, (S)-1-(6-bromo-1-isobutyl-3,4-dihydro-1H-pyrido[3,4-b]indol-2(9H)-yl)-2-(cyclopropylamino)ethanone] | < 0.1 |
| CC(C)CC1c2[nH]c3ccc(Cl)cc3c2CCN1C(=O)CN1CCOCC1 (stereo not shown) [Compound 55] | > 1 |
| CC(C)CC1c2[nH]c3ccc(Cl)cc3c2CCN1C(=O)OCCN1CC(F)(F)C1 (stereo not shown) [Compound 26] | 0.1 to 1 |
| CC(C)C[C@H]1c2[nH]c3ccc(Cl)cc3c2CCN1C(=O)C1CN(CC(F)F)C1 [Compound 54] | 0.1 to 1 |
| CC(C)CC1c2[nH]c3ccc(Cl)cc3c2CCN1C(=O)C1CCN(CCC(F)(F)F)CC1 (stereo not shown) [Compound 50] | 0.1 to 1 |
| CC(C)CC1c2[nH]c3ccc(Cl)cc3c2CCN1C(=O)c1ccccc1 (stereo not shown) [Compound 62] | 0.1 to 1 |
| CC(C)CC1c2[nH]c3ccc(Cl)cc3c2CCN1C(=O)CCN1CCC(CF)CC1 (stereo not shown) [Compound 16] | 0.1 to 1 |
| CC(C)CC1c2[nH]c3ccc(Cl)cc3c2CCN1C(=O)CC(O)c1ccccc1 (stereo not shown) [Compound 48] | 0.1 to 1 |
| CC(C)C[C@H]1c2[nH]c3ccc(Cl)cc3c2CCN1C(=O)CCN1CCC(F)CC1 [Compound 28, (S)-1-(6-chloro-1-isobutyl-3,4-dihydro-1H-pyrido[3,4-b]indol-2(9H)-yl)-3-(4-fluoropiperidin-1-yl)propan-1-one] | 0.1 to 1 |
| CC(C)CC1c2[nH]c3ccc(Cl)cc3c2CCN1C(=O)CNCc1ccno1 (stereo not shown) [Compound 90] | > 1 |
